Source: article PMC8069832, “New Amides and Phosphoramidates Containing Selenium: Studies on Their Cytotoxicity and Antioxidant Activities in Breast Cancer” (Antioxidants, 2021)

What was measured:
[1] = system: MCF-7; assay: Western blot of autophagy and apoptosis markers; assay type: cell-based, human; settings: for Beclin-1 and LC3B levels / Phosphorylation of AMPK and JNK / SQSTM1/p62 (autophagic flux): I.1f 80 µM 48 h, I.2f 30 µM 24 h
[2] = system: MCF-7; assay: Cell death (subdiploid cells), Apo-Direct kit TUNEL flow cytometry; assay type: cell-based, human; settings: 24 h, increasing doses (I.1f 10 to 80 µM)
Method: (§1) For the MCF-7 cell line, both cell cycle analysis and the cell death percentage were determined using the Apo-Direct kit (BD Pharmingen) based on the TUNEL technique, according to the manufacturer’s instructions. Cells were seeded in 25 cm^2 flasks (3 × 10^6 for 24 h of treatment, 2 × 10^6 for 48 h and 10^6 for 72 h) treated with DMSO (negative control), 6 µM of camptothecin (positive control) and different concentrations of I.1f, I.2f and II.2d.
(§2) After treatment, cells were collected and fixed with 1% paraformaldehyde (Sigma) in PBS (pH = 7.4), incubated in ice for 40 min, collected by centrifugation, washed with PBS and incubated with 70% ethanol for 30 min at −20 °C. After fixation, cells were washed twice with PBS and incubated for 1 h at 37 °C with FITC dUTP-DNA Labeling Solution. Cells were then rinsed and incubated in the dark for 30 min at room temperature with PI/RNase staining buffer before being analyzed by flow cytometry (Coulter Epics XL, Beckman Coulter Flow cytometer). Then, cells were treated with compounds I.1f (80 µM), I.2f (30 µM) and II.2d (5 µM) at different times (from 8 to 72 h) following the same methodology.
(§3) Apoptosis and cell cycle arrest are typical mechanisms of action for many anticancer drugs, including selenocompounds [34, 35, 36]. In a first approach, the effect of the selected compounds on cell cycle progression and the induction of apoptosis was studied in MCF-7 cell cultures. Analyses were performed by flow cytometry using the Apo-Direct kit, based on the TUNEL technique under the conditions described by the manufacturer. The cells were treated with the corresponding compound at different concentrations and time points. Camptothecin was used as a positive control at 6 µM.

[3] = system: HT-29; assay: cells; settings: Homo sapiens, HT-29, 48 h; for activity at 10 µM: read-out: Cell growth (%) HT-29; for GI50: read-out: GI50 HT-29; for CC50: read-out: LC50 HT-29; for IC (TGI): read-out: TGI HT-29
[4] = system: MCF-7; assay: Cell cycle phase distribution by flow cytometry; assay type: cell-based, human; settings: 24 h, different doses
Method: as §1, §2, §3
To further understand the mechanism of action of these potent compounds, their effects on cell cycle distribution in MCF-7 were studied by flow cytometry. This assay was carried out with different concentrations (Figure 6) and different time points (Figure 7).

[5] = DPPH radical scavenging assay; settings: 0.03 mg/mL, after 30 min
Method: The DPPH (1,1-diphenyl-2-picrylhydrazyl radical) assay measures the hydrogen donation ability of the antioxidant to convert the stable DPPH free radical into 1,1-diphenyl-2-(2,4,6-trinitrophenyl)-hydrazine. After radical reaction with the compounds, a decrease in the absorbance was detected at 517 nm, which is accompanied by a change of color from violet to light-yellow. The target compounds were dissolved in methanol to make 1 mg/mL stock solutions, which were diluted to five concentrations as test samples. Ascorbic acid was used as a standard, and the experiment was carried out on 96-well plates. The DPPH solution was prepared at a 100 µM concentration. For each test, 100 µL of DPPH solution was added to 100 µL of methanolic solution containing the tested derivatives, and the absorbance was determined at different time points. All the measurements were carried out in triplicate. Results were expressed as the percentage of the radical scavenged, calculated using the following formula:(1) % DPPH radical scavenging=Acontrol − Asample/Acontrol × 100 where Acontrol refers to the absorbance of the negative control, and Asample refers to the absorbance of the tested compounds. Results are expressed as a percentage of DPPH radical scavenged ± SEM.
. Ascorbic acid and Trolox were used as radical scavenger gold standards. […]. No correlation was found for either structure–radical scavenging activity or antitumor–radical scavenging activity, except for compound I.2f, one of the selected cytotoxic agents. To further confirm this antioxidant activity, three compounds (I.1e, I.1g and I.2i) were also evaluated as DPPH radical scavengers at a lower concentration of 0.003 mg/mL (Figure 3B).

[6] = system: MCF-7; settings: read-out: GI50 MCF-7; 48 h, average ± SEM

SMILES | Beclin-1 and LC3B levels [1] | Phosphorylation of AMPK and JNK [1] | SQSTM1/p62 (autophagic flux) [1] | Cell death (subdiploid cells) [2] | activity at 10 µM [3] | GI50 [3] | CC50 [3] | IC (TGI) [3] | Cell cycle phase distribution [4] | DPPH activity inhibition [5] | GI50 [6] | BAX, p21, p53 levels [1] | Bcl-2 levels [1]
O=C(Nc1ccc([Se][Se]c2ccc(NC(=O)c3ccc(C(F)(F)F)cc3)cc2)cc1)c1ccc(C(F)(F)F)cc1 [I.1f] | increased levels | induced JNK and AMPK phosphorylation | downregulated | did not stimulate cell death | -18.4% | 0.1 µM | > 100 µM | 5.7 ± 0.9 µM | increased the number of cells in the S phase dose-dependently |  |  |  | 
N#C[Se]c1ccc(NC(=O)c2ccc(C(F)(F)F)cc2)cc1 [I.2f] | increased levels | induced JNK and AMPK phosphorylation | downregulated | provoked a significant increase in the number of death cells | 26.7% | 0.6 ± 0.4 µM | > 100 µM | 79.2 ± 0.3 µM | increased the number of cells in the S phase dose-dependently | greater than 35% | 0.9 µM |  | 
CCOP(=O)(Nc1ccc([Se]C#N)cc1)OCC [II.2d] |  |  |  | provoked a significant increase in the number of death cells | -63.4% | 5 ± 0.8 µM | 9.5 ± 0.4 µM | 7.3 ± 0.2 µM | arrested them in G0/G1 phase |  | 0.9 ± 0.1 µM | Significantly increased levels | decreased levels
